The source of these data is patent publication US20230121721A1, “MONOACYLGLYCEROL LIPASE INHIBITORS” (STICHTING HET NEDERLANDS KANKER INSTITUUT - ANTONI VAN …, priority 2020, published 2023).

For the assay, the target named is T1, hMAGL (MAGL-overexpressing membrane preparations from transiently transfected HEK293T cells) (Homo sapiens, UniProt Q99685).
T1 construct: expressed in transfected cells; host or cells: HEK293T (transient transfection), membrane preparations
T1 sequence (Q99685 1-303): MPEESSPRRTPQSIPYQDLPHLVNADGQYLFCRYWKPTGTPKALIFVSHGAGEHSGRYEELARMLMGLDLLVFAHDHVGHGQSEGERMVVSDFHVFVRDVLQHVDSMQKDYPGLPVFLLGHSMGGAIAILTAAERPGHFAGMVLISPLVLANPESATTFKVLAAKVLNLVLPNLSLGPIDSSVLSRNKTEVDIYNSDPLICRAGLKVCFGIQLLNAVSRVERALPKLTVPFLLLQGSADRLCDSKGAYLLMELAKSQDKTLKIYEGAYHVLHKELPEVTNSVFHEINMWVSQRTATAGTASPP
Kind of assay: MAGL activity assay (2-AG hydrolysis, glycerol coupled to Amplifu Red fluorescence). The format is biochemical. The settings on record: hMAGL-overexpressing HEK293T membranes, 25 μM 2-AG substrate, 20 min. inhibitor incubation. The source says: The MAGL activity assay is based on the production of glycerol from 2-arachidonoylglycerol (2-AG) hydrolysis by MAGL-overexpressing membrane preparations from transiently transfected HEK293T cells, as previously reported in van der Wel T et al., “A natural substrate-based fluorescence assay for inhibitor screening on diacylglycerol lipase”, J Lipid Res., 2015, 56(4), 927-35. The produced glycerol is coupled to the oxidation of commercially available Amplifu™ Red (Sigma-Aldrich Chemie N.V., Zwijndrecht, Netherlands) via a multi-enzyme cascade, resulting in a fluorescent signal from the dye resorufin.
Standard assays were performed in HEMNB buffer (50 mM HEPES pH 7.4, 1 mM EDTA, 5 mM MgCl2, 100 mM NaCl, 0.5% (w/v) BSA) in black, flat bottom 96-wells plates. Final protein concentration of membrane preparations from overexpressing hMAGL HEK293T cells was 1.5 μg/mL (0.3 μg per well). Inhibitors were added from 40× concentrated DMSO stocks. […] Final assay concentrations: 0.2 U/mL GK, GPO and HRP, 0.125 mM ATP, 10 μM Amplifu™ Red, 25 μM 2-AG, 5% DMSO, 0.5% ACN in a total volume of 200 μL.
For IC50 determination, the MAGL-overexpressing membranes were incubated with different inhibitor concentrations. Slopes of corrected fluorescence in time were determined in the linear interval of t=10 to t=35 min and then scaled to the corrected positive control of hMAGL-overexpressing membranes treated with vehicle (DMSO) as a 100% activity reference point. The data was exported to GraphPad Prism 5.0 and analysed in a non-linear dose-response analysis with variable slope.

As usually defined, the IC50 is the point on the concentration scale where inhibition reaches its midpoint. A high value points to lower potency. `CCOC(=O)CSc1ccc(C(=O)N2CCN(c3cccc(Cl)c3)[C@H](C)[C@H]2C)cc1Cl` (racemic) [Example 52, (±) Ethyl 2-((2-chloro-4-(4-(3-chlorophenyl)-trans-2,3-dimethylpiperazine-1-carbonyl)phenyl)thio)acetate] showed an IC50 of over 10000 nM.

For the molecule `CCOC(=O)CS(=O)(=O)c1ccc(C(=O)N2CCN(c3cccc(Cl)c3)[C@H](C)[C@H]2C)cc1Cl` (racemic) [Example 53, (±) Ethyl 2-((2-chloro-4-(4-(3-chlorophenyl)-trans-2,3-dimethylpiperazine-1-carbonyl)phenyl)sulfonyl)acetate], the IC50 is 339 nM.

Take `CCOC(=O)C[S+]([O-])c1ccc(CN2CCN(c3cccc(Cl)c3)[C@H](C)[C@H]2C)cc1Cl` (mixture of isomers) [Example 54, (±) Ethyl 2-((2-chloro-4-((4-(3-chlorophenyl)-trans-2,3-dimethylpiperazin-1-yl)methyl)phenyl)sulfinyl)acetate]: the IC50 was 6.17 nM.

For the molecule `CCOC(=O)CC(=O)c1ccc(C(=O)N2CCN(c3cccc(Cl)c3)[C@H](C)[C@H]2C)cc1Cl` (racemic) [Example 55, (±) Ethyl 3-(2-chloro-4-(4-(3-chlorophenyl)-trans-2,3-dimethylpiperazine-1-carbonyl)phenyl)-3-oxopropanoate], half-maximal inhibition (IC50) was put at 1150 nM. This IC50 is about 190-fold higher than that of the molecule before.

In turn, `CCC(C)OC(=O)C[S+]([O-])c1ccc(C(=O)N2CCN(c3cccc(Cl)c3)[C@H](C)[C@H]2C)cc1Cl` (mixture of isomers) [Example 57, (±) sec-Butyl 2-((2-chloro-4-(4-(3-chlorophenyl)-trans-2,3-dimethylpiperazine-1-carbonyl)phenyl)sulfinyl)acetate] gave an IC50 of 3.89 nM. Against the preceding molecule, the IC50 is about 300-fold lower.

`C[C@@H]1[C@@H](C)N(c2cccc(Cl)c2)CCN1C(=O)c1ccc([S+]([O-])CC(=O)OC2CCC2)c(Cl)c1` (mixture of isomers) [Example 58, (±) Cyclobutyl 2-((2-chloro-4-(4-(3-chlorophenyl)-trans-2,3-dimethylpiperazine-1-carbonyl)phenyl)sulfinyl)acetate] had a 50% inhibitory concentration (IC50) of 4.17 nM.

Consider `C[C@@H]1[C@@H](C)N(c2cccc(Cl)c2)CCN1C(=O)c1ccc([S+]([O-])CC(=O)OC2CCCCC2)c(Cl)c1` (mixture of isomers) [Example 60, (±) Cyclohexyl 2-((2-chloro-4-(4-(3-chlorophenyl)-trans-2,3-dimethylpiperazine-1-carbonyl)phenyl)sulfinyl)acetate], for which the IC50 is 2.95 nM.

Consider `COCCOC(=O)C[S+]([O-])c1ccc(C(=O)N2CCN(c3cccc(Cl)c3)[C@@H](C)[C@@H]2C)cc1Cl` (mixture of isomers) [Example 65, (±) 2-Methoxyethyl 2-((2-chloro-4-(4-(3-chlorophenyl)-trans-2,3-dimethylpiperazine-1-carbonyl)phenyl)sulfinyl)acetate], for which the IC50 was 9.12 nM.

`COCC(C)OC(=O)C[S+]([O-])c1ccc(C(=O)N2CCN(c3cccc(Cl)c3)[C@@H](C)[C@@H]2C)cc1Cl` (mixture of isomers) [Example 66, (±) 1-Methoxypropan-2-yl 2-((2-chloro-4-(4-(3-chlorophenyl)-trans-2,3-dimethylpiperazine-1-carbonyl)phenyl)sulfinyl)acetate]: half-maximal inhibition (IC50) required 46.8 nM. This IC50 is about 5.1-fold higher than that of the molecule before.

Consider `C[C@H]1[C@H](C)N(c2cccc(Cl)c2)CCN1C(=O)c1ccc([S+]([O-])CC(=O)OC2CCOCC2)c(Cl)c1` (mixture of isomers) [Example 67, (±) tetraHydro-2H-pyran-4-yl 2-((2-chloro-4-(4-(3-chlorophenyl)-trans-2,3-dimethylpiperazine-1-carbonyl)phenyl)sulfinyl)acetate], for which the IC50 is 12.9 nM.

Take `CCOC(=O)C[S+]([O-])c1ccc(C(=O)N2CCN(c3cncc(Cl)c3)[C@@H](C)[C@@H]2C)cc1Cl` (mixture of isomers) [Example 68, (±) Ethyl 2-((2-chloro-4-(-4-(5-chloropyridin-3-yl)-trans-2,3-dimethylpiperazine-1-carbonyl)phenyl)sulfinyl)acetate]: the IC50 is 20.9 nM.

The molecule `CCOC(=O)C[S+]([O-])c1ccc(C(=O)N2CCN(c3ccnc(Cl)c3)[C@@H](C)[C@@H]2C)cc1Cl` (mixture of isomers) [Example 69, (±) Ethyl 2-((2-chloro-4-(-4-(2-chloropyridin-4-yl)-trans-2,3-dimethylpiperazine-1-carbonyl)phenyl)sulfinyl) acetate] had an IC50 of 87.1 nM.

In turn, `CCOC(=O)C[S+]([O-])c1ccc(C(=O)N2CCN(c3cccc(Cl)n3)[C@@H](C)[C@@H]2C)cc1Cl` (mixture of isomers) [Example 70, (±) Ethyl 2-((2-chloro-4-(-4-(6-chloropyridin-2-yl)-trans-2,3-dimethylpiperazine-1-carbonyl)phenyl)sulfinyl)acetate] gave an IC50 of 9.12 nM.

As for `CCOC(=O)C[S+]([O-])c1ccc(C(=O)N2CCN(c3cc(Cl)ccn3)[C@@H](C)[C@@H]2C)cc1Cl` (mixture of isomers) [Example 71, (±) Ethyl 2-((2-chloro-4-(-4-(4-chloropyridin-2-yl)-trans-2,3-dimethylpiperazine-1-carbonyl)phenyl)sulfinyl)acetate], the IC50 is 8.71 nM.

In turn, `C[C@H]1[C@H](C)N(c2cccc(Cl)c2)CCN1C(=O)c1ccc(SCC(=O)C(F)(F)F)c(Cl)c1` (racemic) [Example 72, (±) 3-((2-Chloro-4-(4-(3-chlorophenyl)-trans-2,3-dimethylpiperazine-1-carbonyl)phenyl)thio)-1,1,1-trifluoropropan-2-one] showed an IC50 of 20.9 nM.

On to `C[C@H]1[C@H](C)N(c2cccc(Cl)c2)CCN1C(=O)c1ccc([S+]([O-])CC(=O)C(F)(F)F)c(Cl)c1` (mixture of isomers) [Example 73, (±) 3-((2-Chloro-4-(4-(3-chlorophenyl)-trans-2,3-dimethylpiperazine-1-carbonyl)phenyl)sulfinyl)-1,1,1-trifluoropropan-2-one], for which the IC50 is 7.41 nM.

On to `C[C@H]1[C@H](C)N(c2cccc(Cl)c2)CCN1C(=O)c1ccc([S+]([O-])CC(=O)c2ncco2)c(Cl)c1` (mixture of isomers) [Example 74, (±) 2-((2-Chloro-4-(4-(3-chlorophenyl)-trans-2,3-dimethylpiperazine-1-carbonyl)phenyl)sulfinyl)-1-(oxazol-2-yl)ethan-1-one], for which half-maximal inhibition (IC50) was put at 204 nM.

`C[C@H]1[C@H](C)N(c2cccc(Cl)c2)CCN1C(=O)c1ccc([S+]([O-])CC(=O)c2nccs2)c(Cl)c1` (mixture of isomers) [Example 75, (±) 2-((2-Chloro-4-(4-(3-chlorophenyl)-trans-2,3-dimethylpiperazine-1-carbonyl)phenyl)sulfinyl)-1-(thiazol-2-yl)ethan-1-one] gave an IC50 of 234 nM.

On to `Cc1cnc(C(=O)C[S+]([O-])c2ccc(C(=O)N3CCN(c4cccc(Cl)c4)[C@@H](C)[C@@H]3C)cc2Cl)o1` (mixture of isomers) [Example 76, (±) 2-((2-Chloro-4-(4-(3-chlorophenyl)-trans-2,3-dimethylpiperazine-1-carbonyl)phenyl)sulfinyl)-1-(5-methyloxazol-2-yl)ethan-1-one], for which the IC50 was 380 nM.

The molecule `C[C@H]1[C@H](C)N(c2cccc(Cl)c2)CCN1C(=O)c1ccc([S+]([O-])CC(=O)C(F)F)c(Cl)c1` (mixture of isomers) [Example 77, (±) 3-((2-Chloro-4-(4-(3-chlorophenyl)-trans-2,3-dimethylpiperazine-1-carbonyl)phenyl)sulfinyl)-1,1-difluoropropan-2-one] gave an IC50 of 2.34 nM.

The molecule `C[C@H]1[C@H](C)N(c2cccc(Cl)c2)CCN1C(=O)c1ccc([S+]([O-])CC(=O)C(C)(F)F)c(Cl)c1` (mixture of isomers) [Example 78, (±) 1-((2-Chloro-4-(4-(3-chlorophenyl)-trans-2,3-dimethylpiperazine-1-carbonyl)phenyl)sulfinyl)-3,3-difluorobutan-2-one] had an IC50 of 1.48 nM.

With `C[C@H]1[C@H](C)N(c2cccc(Cl)c2)CCN1C(=O)c1ccc([S+]([O-])CC(=O)C(F)(F)c2ccccc2)c(Cl)c1` (mixture of isomers) [Example 80, (±) 3-((2-Chloro-4-(4-(3-chlorophenyl)-trans-2,3-dimethylpiperazine-1-carbonyl)phenyl)sulfinyl)-1,1-difluoro-1-phenylpropan-2-one], 87.1 nM corresponded to half-maximal inhibition (IC50).

For the molecule `C[C@H]1[C@H](C)N(c2cccc(Cl)n2)CCN1C(=O)c1ccc([S+]([O-])CC(=O)C(C)(F)F)c(Cl)c1` (mixture of isomers) [Example 81, (±) 1-((2-chloro-4-(4-(6-chloropyridin-2-yl)-trans-2,3-dimethylpiperazine-1-carbonyl)phenyl)sulfinyl)-3,3-difluorobutan-2-one], the IC50 is 0.851 nM. This IC50 is about 100-fold lower than that of the molecule before.
